Measurements: patent publication US20230076646A1, “HERBICIDE COMBINATIONS COMPRISING GLUFOSINATE AND SULFENTRAZONE” (BASF SE, priority 2020, published 2023)

How the values were obtained:
Test in all cases: Greenhouse post-emergence weed control, percent injury vs untreated control
Settings in all cases: 504 h
[1] = tested on: Amaranthus Palmerii (AMAPA); format: in vivo, Amaranthus palmeri
Method: (§1) Glufosinate was used as a commercial SL formulation containing 280 g ai/l of glufosinate (Liberty 280 SL, BASF). While the PPO herbicide Spartan containing 480 g ai/l sulfentrazone was used (Spartan 480 SC, FMC) formulation. • The evaluation for plant injury or damage caused by the chemical compositions was carried out using a scale from 0-100% when compared with the untreated control plants. Here, 0 means no damage and 100 means complete destruction of the plants.
(§2) 22., E=X+Y−(X*Y/100), where • X=effect in percent using herbicide A at an application rate of a; • Y=effect in percent using herbicide B at an application rate of b; • E=expected effect (in %) of A+B at application rates a+b.
(§3) The value E corresponds to the effect (plant damage or injury) which is to be expected if the activity of the individual compounds is just additive. If the observed effect is higher than the value E calculated according to Colby, a synergistic effect is present.
Seedlings of Palmer amaranth (Amaranthus palmeri; AMAPA), common waterhemp (Amaranthuis tameriscinus; AMATA), and barnyardgrass (Echinochloa crus-galli; ECHCG) were treated with postemergence applications of either glufosinate at 246 g ai/ha, sulfentrazone at 4.2 or 42 g ai/ha, or the combination of glufosinate (246 g ai/ha) and sulfentrazone (4.2, 42 g ai/ha), respectively, when they were 5-10 cm in height. […]

[2] = tested on: Amaranthus tamariscinus (AMATA); format: in vivo
Method: as §1, §2, §3
(§4) Seedlings of Palmer amaranth (Amaranthus palmeri; AMAPA), common waterhemp (Amaranthuis tameriscinus; AMATA), and barnyardgrass (Echinochloa crus-galli; ECHCG) were treated with postemergence applications of either glufosinate at 246 g ai/ha, sulfentrazone at 4.2 or 42 g ai/ha, or the combination of glufosinate (246 g ai/ha) and sulfentrazone (4.2, 42 g ai/ha), respectively, when they were 5-10 cm in height. All glufosinate treatments contained 1% (w/v) ammonium sulfate and solo sulfentrazone treatments contained 1% (v/v) MSO surfactant. Plants were placed in a completely randomized design with four replications per treatment. Percent injury data was collected 21 days after treatment (DAT).

[3] = tested on: Echinochloa crus-galli (ECHCG); format: in vivo
Method: as §1, §2, §3, §4

[4] = read-out: Solo Glufosinate (246 g ai/ha) % activity

Cc1nn(-c2cc(NS(C)(=O)=O)c(Cl)cc2Cl)c(=O)n1C(F)F [Sulfentrazone, sulfentrazone]
inhibition at 4.2 g/ha ([1]; AMAPA, 4.2 g ai/ha, 1% (v/v) MSO, 21 DAT, 0 = no damage, 100 = complete destruction, read-out: Solo Sulfentrazone (4.2 g ai/ha) % activity): 20% | inhibition at 42 g/ha ([2]; AMATA, 42 g ai/ha, 1% (v/v) MSO, 21 DAT, read-out: Solo Sulfentrazone (42 g ai/ha) % activity): 33% | inhibition at 42 g/ha ([3]; ECHCG, 42 g ai/ha, 1% (v/v) MSO, 21 DAT, read-out: Solo Sulfentrazone (42 g ai/ha) % activity): 23%

CP(=O)(O)CCC(N)C(=O)O (racemic) [Glufosinate, (2RS)-2-amino-4-[hydroxy(methyl)phosphinoyl]butyric acid]
inhibition at 246 g/ha [1, 4]: 79% | inhibition at 246 g/ha [2, 4]: 79% | inhibition at 246 g/ha [3, 4]: 57%
